Article PMC5218480 (PLoS ONE, 2017)

Test system: MV-4-11 cells
Assay: Gene expression microarray analysis (Affymetrix PrimeView) and GSEA
Type: cell-based, human
Parameters: RFU PODN (11730768_x_at) / Fold change /veh PODN (11730768_x_at) / RFU LINC00158 (11744669_a_at) / Fold change /veh LINC00158 (11744669_a_at) / RFU DUSP10 (11751237_a_at) / Fold change /veh DUSP10 (11751237_a_at) / RFU ID3 (11757404_x_at) / Fold change /veh ID3 (11757404_x_at) / RFU PLEKHG5 (11737974_s_at) / Fold change /veh PLEKHG5 (11737974_s_at) / RFU LRRC4B (11730491_at) / Fold change /veh LRRC4B (11730491_at) / RFU GIMAP4 (11747438_a_at) / Fold change /veh GIMAP4 (11747438_a_at) / RFU KRT8 (11758183_x_at) / Fold change /veh KRT8 (11758183_x_at) / RFU CNN1 (11734310_a_at) / Fold change /veh CNN1 (11734310_a_at) / RFU VPS37D (11726825_at) / Fold change /veh VPS37D (11726825_at) / RFU C10orf10 (11716522_x_at) / Fold change /veh C10orf10 (11716522_x_at) / RFU KIR2DL2 /// KIR2DL4 /// KIR2DL5A /// KIR2DL5B /// KIR2DS1 /// KIR2DS2 /// KIR2DS3 /// KIR2DS4 /// KIR3DL3 /// KIR3DL3 /// KIR3DS1 (11738374_at) / Fold change /veh KIR2DL2 /// KIR2DL4 /// KIR2DL5A /// KIR2DL5B /// KIR2DS1 /// KIR2DS2 /// KIR2DS3 /// KIR2DS4 /// KIR3DL3 /// KIR3DL3 /// KIR3DS1 (11738374_at) / RFU C1QL1 (11718748_at) / Fold change /veh C1QL1 (11718748_at) / RFU TMPRSS4 (11747572_a_at) / Fold change /veh TMPRSS4 (11747572_a_at) / RFU HAMP (11756126_x_at) / Fold change /veh HAMP (11756126_x_at) / RFU RNFT2 (11725882_a_at) / Fold change /veh RNFT2 (11725882_a_at) / RFU NR4A2 (11747474_a_at) / Fold change /veh NR4A2 (11747474_a_at) / RFU ABCC12 (11746883_a_at) / Fold change /veh ABCC12 (11746883_a_at) / RFU TMEM136 (11760407_x_at) / Fold change /veh TMEM136 (11760407_x_at) / RFU CLDN22 /// WWC2 (11732394_at) / Fold change /veh CLDN22 /// WWC2 (11732394_at) / RFU HLA-DPB1 (11760878_x_at) / Fold change /veh HLA-DPB1 (11760878_x_at) / RFU SPINT1 (11716480_a_at) / Fold change /veh SPINT1 (11716480_a_at) / RFU GAP43 (11754022_s_at) / Fold change /veh GAP43 (11754022_s_at) / RFU A4GNT (11735810_at) / Fold change /veh A4GNT (11735810_at) / RFU PRB3 (11715151_x_at) / Fold change /veh PRB3 (11715151_x_at) / RFU TUBB4B (11761932_at) / Fold change /veh TUBB4B (11761932_at) / RFU CAPN14 (11732068_a_at) / Fold change /veh CAPN14 (11732068_a_at) / RFU TMCC2 (11721928_a_at) / Fold change /veh TMCC2 (11721928_a_at) / RFU IRGQ (11745062_a_at) / Fold change /veh IRGQ (11745062_a_at) / RFU FAM174B (11720279_a_at) / Fold change /veh FAM174B (11720279_a_at) / RFU TMPRSS4 (11748680_a_at) / Fold change /veh TMPRSS4 (11748680_a_at) / RFU FAM212B (11763350_a_at) / Fold change /veh FAM212B (11763350_a_at) / RFU PLEKHG5 (11743358_a_at) / Fold change /veh PLEKHG5 (11743358_a_at) / RFU ZSCAN30 (11745921_a_at) / Fold change /veh ZSCAN30 (11745921_a_at) / RFU CMKLR1 (11741424_a_at) / Fold change /veh CMKLR1 (11741424_a_at) / RFU LOC101060620 /// MAPK8IP1 (11723275_at) / Fold change /veh LOC101060620 /// MAPK8IP1 (11723275_at) / RFU SPTSSB (11747773_x_at) / Fold change /veh SPTSSB (11747773_x_at) / RFU PRSS12 (11739890_at) / Fold change /veh PRSS12 (11739890_at) / RFU BIN1 (11741810_x_at) / Fold change /veh BIN1 (11741810_x_at) / RFU WNT11 (11732464_a_at) / Fold change /veh WNT11 (11732464_a_at) / RFU C10orf10 (11716521_a_at) / Fold change /veh C10orf10 (11716521_a_at) / RFU C5orf56 (11738089_at) / Fold change /veh C5orf56 (11738089_at) / RFU CYB561 (11721691_x_at) / Fold change /veh CYB561 (11721691_x_at) / RFU ANKRD19P (11752326_a_at) / Fold change /veh ANKRD19P (11752326_a_at) / RFU OR2T12 /// OR2T33 /// OR2T8 (11738714_s_at) / Fold change /veh OR2T12 /// OR2T33 /// OR2T8 (11738714_s_at) / RFU VCAN (11748164_a_at) / Fold change /veh VCAN (11748164_a_at) / RFU JSRP1 (11732532_at) / Fold change /veh JSRP1 (11732532_at) / RFU KRTAP10-11 (11738290_x_at) / Fold change /veh KRTAP10-11 (11738290_x_at) / RFU MYO3A (11730013_a_at) / Fold change /veh MYO3A (11730013_a_at) / RFU EBF3 (11725865_a_at) / Fold change /veh EBF3 (11725865_a_at) / RFU CAMK2N1 (11719241_x_at) / Fold change /veh CAMK2N1 (11719241_x_at) / RFU C5orf56 (11738088_a_at) / Fold change /veh C5orf56 (11738088_a_at) / RFU OLFML3 (11715873_a_at) / Fold change /veh OLFML3 (11715873_a_at) / RFU LOC100653217 /// NTM (11731650_a_at) / Fold change /veh LOC100653217 /// NTM (11731650_a_at) / RFU MAPK11 (11762145_a_at) / Fold change /veh MAPK11 (11762145_a_at) / RFU FIZ1 (11724087_x_at) / Fold change /veh FIZ1 (11724087_x_at) / RFU OASL (11726364_x_at) / Fold change /veh OASL (11726364_x_at) / RFU SOX15 (11748057_x_at) / Fold change /veh SOX15 (11748057_x_at) / RFU CD79A (11719716_a_at) / Fold change /veh CD79A (11719716_a_at) / RFU HIST1H1D (11736915_at) / Fold change /veh HIST1H1D (11736915_at) / RFU CASKIN2 (11723855_a_at) / Fold change /veh CASKIN2 (11723855_a_at) / RFU LOC730098 (11760151_x_at) / Fold change /veh LOC730098 (11760151_x_at) / RFU OR4N2 (11742367_at) / Fold change /veh OR4N2 (11742367_at) / RFU PRRT2 (11749266_a_at) / Fold change /veh PRRT2 (11749266_a_at) / RFU SNX32 (11753110_a_at) / Fold change /veh SNX32 (11753110_a_at) / RFU CDHR5 (11726645_a_at) / Fold change /veh CDHR5 (11726645_a_at) / RFU RCAN1 (11760418_a_at) / Fold change /veh RCAN1 (11760418_a_at) / RFU FAM167A (11723789_a_at) / Fold change /veh FAM167A (11723789_a_at) / RFU FAM26E (11764081_at) / Fold change /veh FAM26E (11764081_at) / RFU ISYNA1 (11749810_s_at) / Fold change /veh ISYNA1 (11749810_s_at) / RFU ACY1 (11761880_at) / Fold change /veh ACY1 (11761880_at) / RFU 11764098_at / Fold change /veh 11764098_at / RFU SAMD14 (11745864_x_at) / Fold change /veh SAMD14 (11745864_x_at) / RFU NPB (11741838_a_at) / Fold change /veh NPB (11741838_a_at) / RFU TMPRSS6 (11731388_a_at) / Fold change /veh TMPRSS6 (11731388_a_at) / RFU KRTAP10-2 (11738614_at) / Fold change /veh KRTAP10-2 (11738614_at) / RFU ARHGAP8 /// PRR5-ARHGAP8 (11727945_x_at) / Fold change /veh ARHGAP8 /// PRR5-ARHGAP8 (11727945_x_at) / RFU KRTAP5-7 /// NADSYN1 (11734609_at) / Fold change /veh KRTAP5-7 /// NADSYN1 (11734609_at) / RFU RASL12 (11751679_a_at) / Fold change /veh RASL12 (11751679_a_at) / RFU CDKN2B (11736163_a_at) / Fold change /veh CDKN2B (11736163_a_at) / RFU PRF1 (11729649_at) / Fold change /veh PRF1 (11729649_at) / RFU, ZNF638 /// ZNF638-IT1 / Fold change vs veh, ZNF638 /// ZNF638-IT1 / RFU, PANK3 / Fold change vs veh, PANK3 / RFU, SH3YL1 / Fold change vs veh, SH3YL1 / RFU, ZEB2 / Fold change vs veh, ZEB2 / RFU, NRIP1 / Fold change vs veh, NRIP1 / RFU, PTTG1IP / Fold change vs veh, PTTG1IP / RFU, CAPN2 / Fold change vs veh, CAPN2 / RFU, MED14 / Fold change vs veh, MED14 / RFU, SNORA58 / Fold change vs veh, SNORA58 / RFU, C1orf63 / Fold change vs veh, C1orf63 / RFU, LRRFIP1 / Fold change vs veh, LRRFIP1 / RFU, NDUFAF7 / Fold change vs veh, NDUFAF7 / RFU, SLC12A2 / Fold change vs veh, SLC12A2 / RFU, IBTK / Fold change vs veh, IBTK / RFU, ESF1 / Fold change vs veh, ESF1 / Fold change vs veh, TMEM50B / RFU, TAOK1 / Fold change vs veh, TAOK1 / RFU, ACBD3 / Fold change vs veh, ACBD3 / RFU, TMA16 / Fold change vs veh, TMA16 / RFU, RWDD3 / Fold change vs veh, RWDD3 / RFU, BCAT1 / Fold change vs veh, BCAT1 / RFU, EDEM3 / Fold change vs veh, EDEM3 / RFU, TMEM33 / Fold change vs veh, TMEM33 / RFU, WDR75 / Fold change vs veh, WDR75 / RFU, AHCTF1 / Fold change vs veh, AHCTF1 / RFU, TFRC / Fold change vs veh, TFRC / RFU, ZDHHC17 / Fold change vs veh, ZDHHC17 / RFU, NOM1 / Fold change vs veh, NOM1 / RFU, ARL8B / Fold change vs veh, ARL8B / RFU, ZBTB11 / Fold change vs veh, ZBTB11 / RFU, TAMM41 / Fold change vs veh, TAMM41 / RFU, KIAA1704 /// LOC100996395 / Fold change vs veh, KIAA1704 /// LOC100996395 / RFU, ING1 / Fold change vs veh, ING1 / RFU, TRMT61B / Fold change vs veh, TRMT61B / RFU, FUBP3 / Fold change vs veh, FUBP3 / RFU, TP53 / Fold change vs veh, TP53 / RFU, TNKS2 / Fold change vs veh, TNKS2 / RFU, ZFP14 / Fold change vs veh, ZFP14 / RFU, ACTR2 / Fold change vs veh, ACTR2 / RFU, PPP3R1 / Fold change vs veh, PPP3R1 / RFU, PIK3R1 / Fold change vs veh, PIK3R1 / RFU, HNRNPA1 / Fold change vs veh, HNRNPA1 / RFU, RNF170 / Fold change vs veh, RNF170 / RFU, ZNF28 / Fold change vs veh, ZNF28 / RFU, RNGTT / Fold change vs veh, RNGTT / RFU, OGT / Fold change vs veh, OGT / RFU, BRD1 / Fold change vs veh, BRD1 / RFU, MARS / Fold change vs veh, MARS / RFU, ZNF655 / Fold change vs veh, ZNF655 / RFU, FAHD1 / Fold change vs veh, FAHD1 / RFU, BDP1 / Fold change vs veh, BDP1 / RFU, LRRCC1 / Fold change vs veh, LRRCC1 / RFU, ARID1A / Fold change vs veh, ARID1A / RFU, ZNF146 / Fold change vs veh, ZNF146 / RFU, ZNF330 / Fold change vs veh, ZNF330 / RFU, GPN3 / Fold change vs veh, GPN3 / RFU, C9orf123 / Fold change vs veh, C9orf123 / RFU, N4BP2L2 / Fold change vs veh, N4BP2L2 / RFU, ARFIP1 / Fold change vs veh, ARFIP1 / RFU, FAM179B / Fold change vs veh, FAM179B / RFU, BCL10 / Fold change vs veh, BCL10 / RFU, UHRF1BP1L / Fold change vs veh, UHRF1BP1L / RFU, BET1 / Fold change vs veh, BET1 / RFU, CNOT2 / Fold change vs veh, CNOT2 / RFU, ZNF268 / Fold change vs veh, ZNF268 / Fold change vs veh, ZNF507 / RFU, DGCR2 / Fold change vs veh, DGCR2 / RFU, WDSUB1 / Fold change vs veh, WDSUB1 / Fold change vs veh, HSP90B1 /// MIR3652 / RFU, ADSS / Fold change vs veh, ADSS / RFU, GK / Fold change vs veh, GK / RFU, ZNF148 / Fold change vs veh, ZNF148 / RFU, TAF9 / Fold change vs veh, TAF9 / RFU, SLC1A5 / Fold change vs veh, SLC1A5 / RFU, SLMO2 / Fold change vs veh, SLMO2 / RFU, ABCC4 / Fold change vs veh, ABCC4 / RFU, LOC101060439 /// RAP1B / Fold change vs veh, LOC101060439 /// RAP1B / RFU, RFX7 / Fold change vs veh, RFX7 / RFU, GTPBP10 / Fold change vs veh, GTPBP10 / RFU, CNEP1R1 / Fold change vs veh, CNEP1R1 / RFU, BIVM-ERCC5 /// ERCC5 / Fold change vs veh, BIVM-ERCC5 /// ERCC5 / RFU, ILF3 / Fold change vs veh, ILF3 / RFU 11762660_at / Fold change /veh 11762660_at / RFU VCAN (11757783_s_at) / Fold change /veh VCAN (11757783_s_at) / RFU DDX43 (11728927_at) / Fold change /veh DDX43 (11728927_at) / RFU KRT8 (11758188_x_at) / Fold change /veh KRT8 (11758188_x_at) / RFU NKD1 (11759106_at) / Fold change /veh NKD1 (11759106_at) / RFU SRD5A1 (11742802_a_at) / Fold change /veh SRD5A1 (11742802_a_at) / RFU TPSAB1 /// TPSB2 (11721975_s_at) / Fold change /veh TPSAB1 /// TPSB2 (11721975_s_at) / RFU GSTM3 (11746129_a_at) / Fold change /veh GSTM3 (11746129_a_at) / RFU IL23R (11737362_x_at) / Fold change /veh IL23R (11737362_x_at) / RFU TMEM51 (11727254_a_at) / Fold change /veh TMEM51 (11727254_a_at) / RFU PIWIL2 (11732686_x_at) / Fold change /veh PIWIL2 (11732686_x_at) / RFU ORM1 (11744905_x_at) / Fold change /veh ORM1 (11744905_x_at) / RFU CCDC152 (11743942_at) / Fold change /veh CCDC152 (11743942_at) / RFU ECM1 (11717891_a_at) / Fold change /veh ECM1 (11717891_a_at) / RFU IL23R (11748794_a_at) / Fold change /veh IL23R (11748794_a_at) / RFU TNFAIP8L3 (11732012_x_at) / Fold change /veh TNFAIP8L3 (11732012_x_at) / RFU MBOAT4 (11741988_at) / Fold change /veh MBOAT4 (11741988_at) / RFU 11764193_at / Fold change /veh 11764193_at / RFU TMEM53 (11763286_at) / Fold change /veh TMEM53 (11763286_at) / RFU MAGEB2 (11727129_at) / Fold change /veh MAGEB2 (11727129_at) / RFU TMEM200A (11744735_a_at) / Fold change /veh TMEM200A (11744735_a_at) / RFU CCDC152 (11751479_a_at) / Fold change /veh CCDC152 (11751479_a_at) / RFU FAM211A (11726209_a_at) / Fold change /veh FAM211A (11726209_a_at) / RFU RGS16 (11746705_a_at) / Fold change /veh RGS16 (11746705_a_at) / RFU VCAN (11755009_s_at) / Fold change /veh VCAN (11755009_s_at) / RFU RHOB (11743442_s_at) / Fold change /veh RHOB (11743442_s_at) / RFU RGS16 (11720943_a_at) / Fold change /veh RGS16 (11720943_a_at) / RFU RGS16 (11720944_at) / Fold change /veh RGS16 (11720944_at) / RFU, VPS4B / Fold change vs veh, VPS4B / RFU, CREB1 / Fold change vs veh, CREB1 / RFU, DNAJC13 / Fold change vs veh, DNAJC13 / RFU, GNAQ / Fold change vs veh, GNAQ / RFU, CDK5R1 / Fold change vs veh, CDK5R1 / RFU, ZRANB3 / Fold change vs veh, ZRANB3 / RFU, CUL4A / Fold change vs veh, CUL4A / RFU, CCNY / Fold change vs veh, CCNY / RFU, UFL1 / Fold change vs veh, UFL1 / RFU, COG3 / Fold change vs veh, COG3 / RFU, DIAPH2 / Fold change vs veh, DIAPH2 / RFU, SKA2 / Fold change vs veh, SKA2 / RFU, AFF3 / Fold change vs veh, AFF3 / RFU, LMF1 / Fold change vs veh, LMF1 / RFU, IPO11 / Fold change vs veh, IPO11 / RFU, DFFB / Fold change vs veh, DFFB / RFU, FOXP1 / Fold change vs veh, FOXP1 / RFU, CARD8 / Fold change vs veh, CARD8 / RFU, STRN3 / Fold change vs veh, STRN3 / RFU, ADK / Fold change vs veh, ADK / RFU, RASSF2 / Fold change vs veh, RASSF2 / RFU, WIPF1 / Fold change vs veh, WIPF1 / RFU, LARP1B / Fold change vs veh, LARP1B / RFU, RASA1 / Fold change vs veh, RASA1 / RFU, RB1 / Fold change vs veh, RB1 / RFU, PPFIA1 / Fold change vs veh, PPFIA1 / RFU, MAT2A / Fold change vs veh, MAT2A / RFU, CCT5 / Fold change vs veh, CCT5 / RFU, WDR92 / Fold change vs veh, WDR92 / RFU, CUX1 / Fold change vs veh, CUX1 / RFU, TTC7A / Fold change vs veh, TTC7A / RFU, TMEM135 / Fold change vs veh, TMEM135 / RFU, DEPTOR / Fold change vs veh, DEPTOR / RFU, CPM / Fold change vs veh, CPM / RFU, DNAJB6 / Fold change vs veh, DNAJB6 / RFU, CACNA2D3 / Fold change vs veh, CACNA2D3 / RFU, DTX4 / Fold change vs veh, DTX4 / RFU, TFCP2 / Fold change vs veh, TFCP2 / RFU, GMCL1 /// GMCL1P1 / Fold change vs veh, GMCL1 /// GMCL1P1 / RFU, AEBP2 / Fold change vs veh, AEBP2 / RFU, SNHG1 /// SNORD22 /// SNORD25 /// SNORD26 /// SNORD27 /// SNORD28 /// SNORD29 /// SNORD31 / Fold change vs veh, SNHG1 /// SNORD22 /// SNORD25 /// SNORD26 /// SNORD27 /// SNORD28 /// SNORD29 /// SNORD31 / Fold change (Aza/veh), C12orf56 (ProbeSet 11735607_a_at) / Fold change (ACY-1035/veh), C12orf56 (ProbeSet 11735607_a_at) / Fold change (Aza/veh), FGFR1OP (ProbeSet 11751329_s_at) / Fold change (ACY-1035/veh), FGFR1OP (ProbeSet 11751329_s_at) / Fold change (Aza/veh), VPS36 (ProbeSet 11739960_a_at) / Fold change (ACY-1035/veh), VPS36 (ProbeSet 11739960_a_at) / RFU SYPL1 (11715823_x_at) / Fold change /veh SYPL1 (11715823_x_at) / RFU IGFBP7 (11715501_s_at) / Fold change /veh IGFBP7 (11715501_s_at) / RFU REEP3 (11722064_at) / Fold change /veh REEP3 (11722064_at) / RFU IGLL1 (11728026_x_at) / Fold change /veh IGLL1 (11728026_x_at): dose or concentration left out as unconfirmed
Conditions: MV-4-11 cells, 48 hours

Question: For `Nc1ncn([C@@H]2O[C@H](CO)[C@@H](O)[C@H]2O)c(=O)n1` [azacitidine], which “RFU LOC101060620 /// MAPK8IP1 (11723275_at)” value is on record?
Answer: 10.14 RFU
